Drawing on patent US10479780B2, “Aminopyrazole derivatives” (Chugai Seiyaku Kabushiki Kaisha, priority 2015, dated 2019), this text covers IC50 for 20 compounds.

What all share (assay type): biochemical
In one assay the target is T1, human Yes1 enzyme (Homo sapiens, UniProt P07947).
T1 construct: made in house
Description: Yes1 enzyme inhibitory activity (time-resolved fluorometry, biotinylated peptide phosphorylation). The conditions noted are these: read-out: YES_IC50. Put shortly: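 Inhibition was expressed against a compound-free control to give IC50, using TR-FRET read-out (Eu-cryptate anti-pTyr antibody, streptavidin-XL665).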

Another assay deals with T2, human Lck enzyme (Homo sapiens, UniProt P06239).
T2 construct: purchased Carna Biosciences, Inc. 08-170
T2 sequence (P06239 whole entry): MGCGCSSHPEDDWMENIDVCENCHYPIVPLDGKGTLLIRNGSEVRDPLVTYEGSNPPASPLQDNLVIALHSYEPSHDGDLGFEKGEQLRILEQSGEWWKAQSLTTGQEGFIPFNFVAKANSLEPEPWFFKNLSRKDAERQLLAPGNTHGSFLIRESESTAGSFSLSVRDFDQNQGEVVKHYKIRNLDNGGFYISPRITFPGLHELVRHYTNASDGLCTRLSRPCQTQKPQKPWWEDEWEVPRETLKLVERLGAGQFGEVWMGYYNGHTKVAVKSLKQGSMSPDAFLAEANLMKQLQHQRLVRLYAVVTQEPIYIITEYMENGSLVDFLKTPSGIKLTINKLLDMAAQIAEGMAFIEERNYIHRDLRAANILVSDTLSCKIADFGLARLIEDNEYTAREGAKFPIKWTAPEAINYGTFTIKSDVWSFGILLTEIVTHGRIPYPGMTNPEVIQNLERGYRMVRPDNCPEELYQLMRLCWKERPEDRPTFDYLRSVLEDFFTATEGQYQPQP
Description: Lck enzyme inhibitory activity (time-resolved fluorometry, biotinylated peptide phosphorylation). Particulars: read-out: LCK_IC50. Put shortly: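 Readout pairs a europium cryptate-labelled anti-phosphotyrosine antibody with XL665-streptavidin, measured by time-resolved fluorescence. IC50 derived from percent inhibition against untreated controls.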

A further assay has as its target T3, human Src enzyme (Homo sapiens, UniProt P12931).
T3 construct: purchased Carna Biosciences, Inc. 08-173
Put plainly: Src enzyme inhibitory activity (time-resolved fluorometry, biotinylated peptide phosphorylation). Particulars: read-out: SRC_IC50. The method in brief:
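Compounds were tested for blocking tyrosine phosphorylation of a biotinylated peptide substrate by recombinant human Src. Phosphorylated product was quantified by time-resolved fluorometry using europium cryptate and XL665 conjugates, and IC50 was calculated against the compound-free control.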

T3 sequence (P12931 whole entry): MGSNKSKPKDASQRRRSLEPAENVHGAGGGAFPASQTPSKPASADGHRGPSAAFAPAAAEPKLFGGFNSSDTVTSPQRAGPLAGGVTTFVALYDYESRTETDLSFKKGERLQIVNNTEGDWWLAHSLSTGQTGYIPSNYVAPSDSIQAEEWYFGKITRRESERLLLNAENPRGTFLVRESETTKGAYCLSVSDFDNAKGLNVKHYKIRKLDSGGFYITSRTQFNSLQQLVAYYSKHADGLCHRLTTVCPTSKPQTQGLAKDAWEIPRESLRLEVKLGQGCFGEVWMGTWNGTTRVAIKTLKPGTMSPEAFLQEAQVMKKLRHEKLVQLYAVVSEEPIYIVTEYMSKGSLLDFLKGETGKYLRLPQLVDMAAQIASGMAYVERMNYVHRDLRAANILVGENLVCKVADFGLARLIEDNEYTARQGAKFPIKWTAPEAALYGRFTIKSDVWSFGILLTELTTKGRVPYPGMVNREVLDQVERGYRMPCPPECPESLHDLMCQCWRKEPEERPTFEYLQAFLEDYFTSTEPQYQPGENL
T1 sequence (P07947 whole entry): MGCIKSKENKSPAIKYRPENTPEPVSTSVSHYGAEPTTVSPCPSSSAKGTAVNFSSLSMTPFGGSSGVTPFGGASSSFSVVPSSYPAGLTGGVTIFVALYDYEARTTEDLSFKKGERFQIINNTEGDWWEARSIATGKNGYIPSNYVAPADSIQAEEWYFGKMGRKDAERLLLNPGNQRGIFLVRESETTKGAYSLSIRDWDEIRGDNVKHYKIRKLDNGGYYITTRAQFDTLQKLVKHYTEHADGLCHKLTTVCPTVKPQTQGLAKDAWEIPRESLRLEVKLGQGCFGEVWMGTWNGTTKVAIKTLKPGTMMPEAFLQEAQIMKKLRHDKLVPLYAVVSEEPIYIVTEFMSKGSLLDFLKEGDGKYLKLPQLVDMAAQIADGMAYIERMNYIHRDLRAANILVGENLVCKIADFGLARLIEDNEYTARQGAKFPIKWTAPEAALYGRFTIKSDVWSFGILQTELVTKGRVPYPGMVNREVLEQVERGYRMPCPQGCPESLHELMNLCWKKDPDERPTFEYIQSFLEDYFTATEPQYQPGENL

On to `Cc1cc(Oc2c(F)cccc2F)ncc1-n1ncc(C(=O)c2cc3cc(OC4CCN(C(C)C)CC4)c(N4CCC(N5CCOCC5)CC4)cc3[nH]2)c1N` [Example 5-1-201, [5-amino-1-[6-(2,6-difluorophenoxy)-4-methylpyridin-3-yl]pyrazol-4-yl]-[6-(4-morpholin-4-ylpiperidin-1-yl)-5-(1-propan-2-ylpiperidin-4-yl)oxy-1H-indol-2-yl]methanone], for which the IC50 at human Yes1 enzyme is 0.25 nM; at human Lck enzyme, 3.2 nM; on human Src enzyme it was 3.5 nM.
On to `Cc1cc(Oc2c(F)cccc2F)ncc1-n1ncc(C(=O)c2cc3cc(OC4CCN(C(C)C)CC4)c(N4CCC(O)CC4)cc3[nH]2)c1N` [Example 5-1-202, [5-amino-1-[6-(2,6-difluorophenoxy)-4-methylpyridin-3-yl]pyrazol-4-yl]-[6-(4-hydroxypiperidin-1-yl)-5-(1-propan-2-ylpiperidin-4-yl)oxy-1H-indol-2-yl]methanone], for which the IC50 on human Yes1 enzyme stood at 0.17 nM; on human Lck enzyme it was 2.8 nM; on human Src enzyme it was 3.1 nM.
On to `Cc1cc(Oc2ccccc2F)ccc1-n1ncc(C(=O)c2cc3cc(OC4CCN(C(C)C)CC4)c(F)cc3[nH]2)c1N` [Example 5-1-203, [5-amino-1-[4-(2-fluorophenoxy)-2-methylphenyl]pyrazol-4-yl]-[6-fluoro-5-(1-propan-2-ylpiperidin-4-yl)oxy-1H-indol-2-yl]methanone], for which the IC50 at human Yes1 enzyme amounted to 0.36 nM; on human Lck enzyme it was 6.2 nM; on human Src enzyme it was 7 nM.
`Cc1cc(Oc2c(F)cccc2F)ncc1-n1ncc(C(=O)c2cc3cc(OC4CCN(C(C)C)CC4)c(F)cc3[nH]2)c1N` [Example 5-1-204, [5-amino-1-[6-(2,6-difluorophenoxy)-4-methylpyridin-3-yl]pyrazol-4-yl]-[6-fluoro-5-(1-propan-2-ylpiperidin-4-yl)oxy-1H-indol-2-yl] methanone]: the IC50 at human Yes1 enzyme was found to be 0.5 nM; at human Lck enzyme, 6.7 nM; at human Src enzyme, 10 nM.
Take `Cc1cc(Oc2c(F)cccc2F)ncc1-n1ncc(C(=O)c2cc3cc(OC4CCN(C(C)C)CC4)c(Cl)cc3[nH]2)c1N` [Example 5-1-205, [5-amino-1-[6-(2,6-difluorophenoxy)-4-methylpyridin-3-yl]pyrazol-4-yl]-[6-chloro-5-(1-propan-2-ylpiperidin-4-yl)oxy-1H-indol-2-yl] methanone]: the IC50 was found to be 0.43 nM on human Yes1 enzyme, 7.2 nM on human Lck enzyme and 15 nM at human Src enzyme.
For the compound `Cc1cc2cc(C(=O)c3cnn(-c4ccc(Oc5ccccc5F)c(C)c4F)c3N)[nH]c2cc1NS(C)(=O)=O` [Example 5-1-207, N-[2-[5-ainino-1-[2-fluoro-4-(2-fluorophenoxy)-3-methylphenyl]pyrazole-4-carbonyl]-5-methyl-1H-indol-6-yl]methanesulfonamide], the IC50 at human Yes1 enzyme stood at 1.9 nM; on human Lck enzyme it was 82 nM; at human Src enzyme, 350 nM.
Taken in the same sequence, the figures for `Cc1cc(-n2ncc(C(=O)c3cc4cc(OC5CCN(C(C)C)CC5)c(F)cc4[nH]3)c2N)ccc1Oc1cccc(F)c1` [Example 5-1-208, [5-amino-1-[4-(3-fluorophenoxy)-3-methylphenyl]pyrazol-4-yl]-[6-fluoro-5-(1-propan-2-ylpiperidin-4-yl)oxy-1H-indol-2-yl] methanone] were 3.7 nM, 65 nM and 450 nM.
Take `Cc1cc(-n2ncc(C(=O)c3cc4cc(OC5CCN(C(C)C)CC5)c(Cl)cc4[nH]3)c2N)ccc1Oc1cccc(F)c1` [Example 5-1-209, [5-amino-1-[4-(3-fluorophenoxy)-3-methylphenyl]pyrazol-4-yl]-[6-chloro-5-(1-propan-2-ylpiperidin-4-yl)oxy-1H-indol-2-yl] methanone]: the IC50 came to 4.4 nM at human Yes1 enzyme, 98 nM on human Lck enzyme and 420 nM at human Src enzyme.
Take `Cc1cc(-n2ncc(C(=O)c3cc4cc(OC5CCN(C(C)C)CC5)c(Br)cc4[nH]3)c2N)ccc1Oc1cccc(F)c1` [Example 5-1-210, [5-amino-1-[4-(3-fluorophenoxy)-3-methylphenyl]pyrazol-4-yl]-[6-bromo-5-(1-propan-2-ylpiperidin-4-yl)oxy-1H-indol-2-yl] methanone]: the IC50 on human Yes1 enzyme came to 6.5 nM; at human Lck enzyme, 120 nM; on human Src enzyme it was 510 nM.
Taken in the same sequence, the figures for `Cc1cc(-n2ncc(C(=O)c3cc4cc(OC5CCN(C(C)C)CC5)c(Br)cc4[nH]3)c2N)c(F)cc1Oc1ccccc1F` [Example 5-1-212, [5-amino-1-[2-fluoro-4-(2-fluorophenoxy)-5-methylphenyl]pyrazol-4-yl]-[6-bromo-5-(1-propan-2-ylpiperidin-4-yl)oxy-1H-indol-2-yl] methanone] were 4.5 nM, 60 nM and 220 nM.
For `Cc1cc2cc(C(=O)c3cnn(-c4ccc(Oc5ccccc5F)c(C)c4C)c3N)[nH]c2cc1NS(C)(=O)=O` [Example 5-1-213, N-[2-[5-amino-1-[4-(2-fluorophenoxy)-2,3-dimethylphenyl]pyrazole-4-carbonyl]-5-methyl-1H-indol-6-yl]methanesulfonamide], in that order: 9.8 nM, 150 nM and 600 nM.
As to `Cc1cc2cc(C(=O)c3cnn(-c4ccc(Oc5ccccc5F)c(F)c4F)c3N)[nH]c2cc1NS(C)(=O)=O` [Example 5-1-214, N-[2-[5-amino-1-[2,3-difluoro-4-(2-fluorophenoxy)phenyl]pyrazole-4-carbonyl]-5-methyl-1H-indol-6-yl]methanesulfonamide], the figures for the IC50 on human Yes1 enzyme, on human Lck enzyme and on human Src enzyme were 0.99 nM, 11 nM and 52 nM, respectively.
As to `Cc1cc(-n2ncc(C(=O)c3cc4cc(OC5CCN(C(C)C)CC5)c(N5CCC(N6CCOCC6)CC5)cc4[nH]3)c2N)c(F)cc1Oc1ccccc1F` [Example 5-1-215, [5-amino-1-[2-fluoro-4-(2-fluorophenoxy)-5-methylphenyl]pyrazol-4-yl]-[6-(4-morpholin-4-ylpiperidin-1-yl)-5-(1-propan-2-ylpiperidin-4-yl)oxy-1H-indol-2-yl]methanone], the IC50 at human Yes1 enzyme turned out to be 0.81 nM; at human Lck enzyme it was 6 nM; on human Src enzyme it was 82 nM.
As for `Cc1cc(-n2ncc(C(=O)c3cc4cc(OC5CCN(C6CCCC6)CC5)c(Br)cc4[nH]3)c2N)ccc1Oc1ccccc1F` [Example 5-1-216, [5-amino-1-[4-(2-fluorophenoxy)-3-methylphenyl]pyrazol-4-yl]-[6-bromo-5-(1-cyclopentylpiperidin-4-yl)oxy-1H-indol-2-yl] methanone], the IC50 at human Yes1 enzyme was 1.7 nM; at human Lck enzyme it was 47 nM; on human Src enzyme, 1000 nM.
Regarding `Cc1cc(-n2ncc(C(=O)c3cc4cc(OCC(F)F)c(C5CCN(S(C)(=O)=O)CC5)cc4[nH]3)c2N)ccc1Oc1ccccc1F` [Example 5-1-217, [5-amino-1-[4-(2-fluorophenoxy)-3-methylphenyl]pyrazol-4-yl]-[5-(2,2-difluoroethoxy)-6-(1-methylsulfonylpiperidin-4-yl)-1H-indol-2-yl]methanone], the IC50 at human Yes1 enzyme is 1.4 nM; on human Lck enzyme it was 48 nM; at human Src enzyme, 150 nM.
Take `Cc1cc(-n2ncc(C(=O)c3cc4cc(OC5CCN(C6CCC6)CC5)c(Br)cc4[nH]3)c2N)ccc1Oc1ccccc1F` [Example 5-1-218, [5-amino-1-[4-(2-fluorophenoxy)-3-methylphenyl]pyrazol-4-yl]-[6-bromo-5-(1-cyclobutylpiperidin-4-yl)oxy-1H-indol-2-yl] methanone]: the IC50 at human Yes1 enzyme was 0.64 nM; on human Lck enzyme, 39 nM; at human Src enzyme, 220 nM.
For the compound `Cc1cc(-n2ncc(C(=O)c3cc4cc(OC5CCN(C6CC6)CC5)c(Br)cc4[nH]3)c2N)ccc1Oc1ccccc1F` [Example 5-1-219, [5-amino-1-[4-(2-fluorophenoxy)-3-methylphenyl]pyrazol-4-yl]-[6-bromo-5-(1-cyclopropylpiperidin-4-yl)oxy-1H-indol-2-yl] methanone], the IC50 at human Yes1 enzyme turned out to be 1.3 nM; at human Lck enzyme, 83 nM; on human Src enzyme, 460 nM.
In the case of `Cc1cc(-n2ncc(C(=O)c3cc4cc(OC5CCN(C6COC6)CC5)c(Br)cc4[nH]3)c2N)ccc1Oc1ccccc1F` [Example 5-1-220, (5-amino-1-(4-(2-fluorophenoxy)-3-methylphenyl)-1H-pyrazol-4-yl)(6-bromo-5-((1-(oxetan-3-yl)piperidin-4-yl)oxy)-1H-indol-2-yl)methanone], the IC50 was determined as 1.5 nM at human Yes1 enzyme, 56 nM on human Lck enzyme and 180 nM on human Src enzyme.
As to `Cc1cc(Oc2c(F)cccc2F)ncc1-n1ncc(C(=O)c2cc3cc(OC4CCN(C5CCC5)CC4)c(Br)cc3[nH]2)c1N` [Example 5-1-221, [5-amino-1-[6-(2,6-difluorophenoxy)-4-methylpyridin-3-yl]pyrazol-4-yl]-[6-bromo-5-(1-cyclobutylpiperidin-4-yl)oxy-1H-indol-2-yl] methanone], the IC50 at human Yes1 enzyme came to 0.66 nM; on human Lck enzyme it was 7.5 nM; at human Src enzyme, 6.4 nM.
In the case of `Cc1cc(Oc2c(F)cccc2F)ncc1-n1ncc(C(=O)c2cc3cc(OC4CCN(C5COC5)CC4)c(Br)cc3[nH]2)c1N` [Example 5-1-222, [5-amino-1-[6-(2,6-difluorophenoxy)-4-methylpyridin-3-yl]pyrazol-4-yl]-[6-bromo-5-[1-(oxetan-3-yl)plperidin-4-yl]oxy-1H-indol-2-yl] methanone], the IC50 was found to be 1.3 nM at human Yes1 enzyme, 7.5 nM on human Lck enzyme and 4.7 nM at human Src enzyme.
